US20240174618A1, “SUBSTITUTED (2-HETEROARYLOXYPHENYL)SULFONATES, SALTS THEREOF AND THEIR USE AS HERBICIDAL AGENTS” (Bayer Aktiengesellschaft, priority 2021, published 2024)

Key:
Format in all cases: in vivo
Veronica persica (VERPE) [1] = test: E. Herbicidal post-emergence efficacy, VERPE
Procedure: (§1) Seeds of monocotyledonous and dicotyledonous weeds and crop plants were placed in sandy loam in plastic or organic planting pots, covered with soil and cultivated in a greenhouse under controlled growth conditions. 2 to 3 weeks after sowing, the test plants were treated at the one-leaf stage. The compounds of the invention, formulated in the form of wettable powders (WP) or as emulsion concentrates (EC), were then sprayed onto the green parts of the plants as aqueous suspension or emulsion with addition of 0.5% additive at a water application rate of 600 l/ha (converted). After the test plants had been kept in the greenhouse under optimum growth conditions for about 3 weeks, the activity of the preparations was rated visually in comparison to untreated controls.
(§2) For example, • 100% efficacy=plants have died, • 0% action=like untreated control plants.
(§3) Tables E1a to E12b below show the effects of selected compounds of the general formula (I) according to table 1 on various harmful plants at an application rate corresponding to 320 g/ha or less, which were obtained by the experimental procedure mentioned above.

Zea mays (ZEAMX) [2] = test: F. Post-emergence effect on useful plants, ZEAMX; details: useful plant
Procedure: as §1, §2
(§4) Tables F1a to F4 below show the effects of selected compounds of the general formula (I) according to table 1 on various useful plants at an application rate corresponding to 320 g/ha or less, which were obtained by the experimental procedure mentioned above.

Kochia scoparia (KCHSC) [3] = test: E. Herbicidal post-emergence efficacy, KCHSC
Procedure: as §1, §2, §3

Viola tricolor (VIOTR) = test: E. Herbicidal post-emergence efficacy, VIOTR
Procedure: as §1, §2, §3

[4] = tested on: Triticum aestivum (TRZAS); test: F. Post-emergence effect on useful plants, TRZAS; details: useful plant
Procedure: as §1, §2, §4

Zea mays (ZEAMX) [5] = test: D. Pre-emergence effect on useful plants, ZEAMX; details: useful plant, application rate 80 g/ha
Text: (§5) Seeds of monocotyledonous and dicotyledonous weed plants and crop plants were placed in plastic or organic planting pots and covered with soil. The compounds of the invention, formulated in the form of wettable powders (WP) or as emulsion concentrates (EC), were then applied to the surface of the covering soil as aqueous suspension or emulsion with addition of 0.5% additive at a water application rate equivalent to 600 l/ha (converted). After the treatment, the pots were placed in a greenhouse and kept under good growth conditions for the test plants. After about 3 weeks, the efficacy of the preparations was scored visually in comparison with untreated controls as percentages. For example, • 100% efficacy=plants have died, • 0% efficacy=like untreated control plants.
(§6) Tables D1a to D5b below show the effects of selected compounds of the general formula (I) according to table 1 on various useful plants at an application rate corresponding to 320 g/ha or less, which were obtained by the experimental procedure mentioned above.

[6] = tested on: Triticum aestivum (TRZAS); test: D. Pre-emergence effect on useful plants, TRZAS; details: useful plant
Text: as §5, §6

[7] = tested on: Amaranthus retroflexus (AMARE); test: E. Herbicidal post-emergence efficacy, AMARE
Procedure: as §1, §2, §3

[8] = tested on: Amaranthus retroflexus (AMARE); test: C. Herbicidal pre-emergence efficacy, AMARE; details: 320 g/ha, scored after about 3 weeks
Text: as §5
Tables C1a to C14b below show the effects of selected compounds of the general formula (I) according to table 1 on various harmful plants at an application rate corresponding to 320 g/ha or less, which were obtained by the experimental procedure mentioned above.

[9] = tested on: Abutilon theophrasti (ABUTH); test: A. Herbicidal pre-emergence efficacy, ABUTH; details: scored visually after about 3 weeks vs untreated controls
Outline: (§7)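 Applied before emergence onto covering soil at rates of 1280 g/ha or less, using 600 L/ha spray water with 0.5% additive. Scoring: visual % efficacy after ~3 weeks, greenhouse.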

Kochia scoparia (KCHSC) [10] = test: B. Herbicidal post-emergence efficacy, KCHSC; details: for Post-emergence efficacy against KCHSC in %: rated visually after about 3 weeks
Outline: (§8)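 First, seeds were sown in sandy loam and grown 2 to 3 weeks under controlled greenhouse conditions. Next, foliage at the one-leaf stage received the formulated compound in water with 0.5% additive (600 L/ha, 1280 g/ha or less). Finally, damage was rated visually after about 3 weeks against untreated plants.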

Setaria viridis (SETVI) [11] = test: A. Herbicidal pre-emergence efficacy, SETVI
Outline: as §7

[12] = tested on: Digitaria sanguinalis (DIGSA); test: A. Herbicidal pre-emergence efficacy, DIGSA; details: scored visually after about 3 weeks vs untreated controls
Outline: as §7

Setaria viridis (SETVI) [13] = test: B. Herbicidal post-emergence efficacy, SETVI; details: 1280 g/ha
Outline: as §8

Poa annua (POAAN) [14] = test: A. Herbicidal pre-emergence efficacy, POAAN
Outline: as §7

Veronica persica (VERPE) [15] = test: B. Herbicidal post-emergence efficacy, VERPE
Outline: as §8

[16] = tested on: Echinochloa crus-galli (ECHCG); test: A. Herbicidal pre-emergence efficacy, ECHCG; details: scored visually after about 3 weeks vs untreated controls
Outline: as §7

[17] = tested on: Digitaria sanguinalis (DIGSA); test: B. Herbicidal post-emergence efficacy, DIGSA; details: 1280 g/ha, rated visually after about 3 weeks
Outline: as §8

Veronica persica (VERPE) [18] = test: A. Herbicidal pre-emergence efficacy, VERPE
Outline: as §7

[19] = tested on: Abutilon theophrasti (ABUTH); test: B. Herbicidal post-emergence efficacy, ABUTH; details: rated visually after about 3 weeks
Outline: as §8

Lolium rigidum (LOLRI) = test: A. Herbicidal pre-emergence efficacy, LOLRI; details: dosage 1280 g/ha
Outline: as §7

Poa annua (POAAN) [20] = test: B. Herbicidal post-emergence efficacy, POAAN; details: 1280 g/ha
Outline: as §8

[21] = tested on: Amaranthus retroflexus (AMARE); test: A. Herbicidal pre-emergence efficacy, AMARE
Outline: as §7

Stellaria media (STEME) [22] = test: A. Herbicidal pre-emergence efficacy, STEME
Outline: as §7

[23] = tested on: Alopecurus myosuroides (ALOMY); test: B. Herbicidal post-emergence efficacy, ALOMY; details: 1280 g/ha, rated visually after about 3 weeks
Procedure: Seeds of mono- and dicotyledonous weed plants were placed in plastic pots in sandy loam soil (doubly sown with in each case one species of mono- or dicotyledonous weed plants per pot), covered with soil and cultivated in a greenhouse under controlled growth conditions. 2 to 3 weeks after sowing, the test plants were treated at the one-leaf stage. The compounds of the invention, formulated in the form of wettable powders (WP) or as emulsion concentrates (EC), were applied onto the green parts of the plants as aqueous suspension or emulsion with addition of 0.5% additive at a water application rate of 600 liters per hectare (converted). After the test plants had been kept in the greenhouse under optimum growth conditions for about 3 weeks, the activity of the preparations was rated visually in comparison to untreated controls.
For example, • 100% efficacy=plants have died, • 0% efficacy=like untreated control plants
Tables B1a to B12c below show the effects of selected inventive compounds of the general formula (I) according to table 1 on various harmful plants at an application rate corresponding to 1280 g/ha or less, which were obtained by the experimental procedure mentioned above.

[24] = tested on: Amaranthus retroflexus (AMARE); test: B. Herbicidal post-emergence efficacy, AMARE
Outline: as §8

[25] = tested on: Matricaria inodora (MATIN); test: A. Herbicidal pre-emergence efficacy, MATIN
Outline: as §7

Stellaria media (STEME) [26] = test: B. Herbicidal post-emergence efficacy, STEME
Outline: as §8

Kochia scoparia (KCHSC) [27] = test: A. Herbicidal pre-emergence efficacy, KCHSC
Outline: as §7

[28] = tested on: Echinochloa crus-galli (ECHCG); test: B. Herbicidal post-emergence efficacy, ECHCG; details: 1280 g/ha, rated visually after about 3 weeks
Outline: as §8

[29] = pre-emergence, dosage 1280 g/ha

N#Cc1cccc(Oc2ncc(Cl)cn2)c1OS(=O)(=O)CCC(F)(F)F [Example I-82]
80%: Post-emergence efficacy against VIOTR in % (Viola tricolor (VIOTR); application rate 80 g/ha) | Post-emergence efficacy against VIOTR in % (Viola tricolor (VIOTR); application rate 320 g/ha) | Pre-emergence efficacy against AMARE [8]
0%: Post-emergence efficacy against ZEAMX in % (Zea mays (ZEAMX) [2]; application rate 80 g/ha) | Post-emergence efficacy against TRZAS in % ([4]; application rate 80 g/ha) | Post-emergence efficacy against TRZAS in % ([4]; application rate 320 g/ha) | Pre-emergence efficacy against ZEAMX in % (Zea mays (ZEAMX) [5]) | Pre-emergence efficacy against TRZAS in % ([6]; application rate 80 g/ha) | Pre-emergence efficacy against TRZAS in % ([6]; application rate 320 g/ha)
100%: Post-emergence efficacy against VERPE in % (Veronica persica (VERPE) [1]; application rate 80 g/ha) | Post-emergence efficacy against VERPE in % (Veronica persica (VERPE) [1]; application rate 320 g/ha) | Post-emergence efficacy against AMARE in % ([7]; application rate 320 g/ha)
20%: Post-emergence efficacy against ZEAMX in % (Zea mays (ZEAMX) [2]; application rate 320 g/ha)
90%: Post-emergence efficacy against KCHSC in % (Kochia scoparia (KCHSC) [3]; application rate 80 g/ha) | Post-emergence efficacy against KCHSC in % (Kochia scoparia (KCHSC) [3]; application rate 320 g/ha) | Post-emergence efficacy against AMARE in % ([7]; application rate 80 g/ha)

CCS(=O)(=O)Oc1ccccc1Oc1ncc(Cl)cn1 [Example I-16]
90%: Post-emergence efficacy against KCHSC in % (Kochia scoparia (KCHSC) [10]; 80 g/ha) | Post-emergence efficacy against SETVI (Setaria viridis (SETVI) [13]) | Pre-emergence efficacy against ECHCG ([16]; 320 g/ha) | Post-emergence efficacy against DIGSA in % [17] | Pre-emergence efficacy against VERPE in % (Veronica persica (VERPE) [18]; 320 g/ha) | Post-emergence efficacy against ABUTH in % ([19]; 320 g/ha) | Pre-emergence efficacy against LOLRI (Lolium rigidum (LOLRI)) | Post-emergence efficacy against ALOMY in % [23] | Post-emergence efficacy against STEME (Stellaria media (STEME) [26]; 80 g/ha) | Post-emergence efficacy against ECHCG in % [28]
100%: Pre-emergence efficacy against ABUTH ([9]; 320 g/ha) | Pre-emergence efficacy against ABUTH ([9]; 1280 g/ha) | Post-emergence efficacy against KCHSC in % (Kochia scoparia (KCHSC) [10]; 320 g/ha) | Post-emergence efficacy against KCHSC (Kochia scoparia (KCHSC) [10]; 1280 g/ha) | Pre-emergence efficacy against SETVI (Setaria viridis (SETVI) [11]; dosage 320 g/ha) | Pre-emergence efficacy against SETVI (Setaria viridis (SETVI) [11]; dosage 1280 g/ha) | Pre-emergence efficacy against DIGSA ([12]; 320 g/ha) | Pre-emergence efficacy against DIGSA ([12]; 1280 g/ha) | Pre-emergence efficacy against POAAN (Poa annua (POAAN) [14]; dosage 320 g/ha) | Pre-emergence efficacy against POAAN (Poa annua (POAAN) [14]; dosage 1280 g/ha) | Post-emergence efficacy against VERPE (Veronica persica (VERPE) [15]; 80 g/ha) | Post-emergence efficacy against VERPE (Veronica persica (VERPE) [15]; 320 g/ha) | Post-emergence efficacy against VERPE (Veronica persica (VERPE) [15]; 1280 g/ha) | Pre-emergence efficacy against ECHCG ([16]; 1280 g/ha) | Pre-emergence efficacy against VERPE in % (Veronica persica (VERPE) [18]; 1280 g/ha) | Post-emergence efficacy against ABUTH in % ([19]; 1280 g/ha) | Post-emergence efficacy against POAAN (Poa annua (POAAN) [20]) | Pre-emergence efficacy against AMARE in % ([21]; 80 g/ha) | Pre-emergence efficacy against AMARE in % ([21]; 320 g/ha) | Pre-emergence efficacy against AMARE in % ([21]; 1280 g/ha) | Pre-emergence efficacy against STEME (Stellaria media (STEME) [22]; dosage 320 g/ha) | Pre-emergence efficacy against STEME (Stellaria media (STEME) [22]; dosage 1280 g/ha) | Post-emergence efficacy against AMARE ([24]; 80 g/ha) | Post-emergence efficacy against AMARE ([24]; 320 g/ha) | Post-emergence efficacy against AMARE ([24]; 1280 g/ha) | Pre-emergence efficacy against MATIN ([25]; 320 g/ha, scored visually after about 3 weeks vs untreated controls) | Pre-emergence efficacy against MATIN [25, 29] | Post-emergence efficacy against STEME (Stellaria media (STEME) [26]; 320 g/ha) | Post-emergence efficacy against STEME (Stellaria media (STEME) [26]; 1280 g/ha) | Pre-emergence efficacy against KCHSC (Kochia scoparia (KCHSC) [27]; 80 g/ha, scored visually after about 3 weeks vs untreated controls) | Pre-emergence efficacy against KCHSC (Kochia scoparia (KCHSC) [27]; pre-emergence, dosage 320 g/ha) | Pre-emergence efficacy against KCHSC (Kochia scoparia (KCHSC) [27]; [29])
